{"source": "patent US11883418B2", "about": "“Compound TSYI-ZAC for inhibiting dengue virus infection and medicinal use thereof” (Syi Biotechnology Co., Ltd., priority 2022, dated 2024)", "key": {"Meg-01 cells": {"test_system": "Meg-01 cells", "experiment": "Cell viability assay (WST-1) of Meg-01 cells", "assay_type": "cell-based, human", "conditions": "for IC10 (concentration that produces 10% inhibition of cell viability): Meg-01 cells, co-culture 7 days, WST-1, OD 440 nm; for effect on cell viability: 400 μg/mL; for effect on cell viability / toxicity on Meg-01 cells (cell viability): 7 days; for toxicity on Meg-01 cells (cell viability): low concentrations 25 μg/mL, 50 μg/mL", "protocol": "Meg-01 cell strains (CRL2021, ATCC, human myelo-megakaryocyte leukemia cell strains) are cultured in a RPMI medium with 10% fetal bovine serum, when a cell density reaches 80-90%, the cell sap can be withdrawn into a centrifuge tube, after being centrifuged in a centrifuge (600 rpm, 6 minutes), then remove the supernatant, and re-lyse the centrifuged cells with an appropriate amount of a culture medium for subculture or subsequent experiments.\n1×10^3 Meg-01 cells are lysed in 100 μL of 10% fetal bovine serum in a RPMI culture medium and seeded into a 96-well U-shaped plate. Different concentrations of the Antrodia camphorata extract ZAC and the Antrodia camphorata extract YS-1 are added to the cells for co-culture at 37° C. for 7 days, while the cells added with dimethyl sulfoxide (DMSO) are used as an experimental control group.\nPlease refer to FIG. 1. FIG. 1 is a graph of viability of Meg-01 cells after adding the Antrodia camphorata extract according to one embodiment of the invention. The Meg-01 cells are co-cultured with different concentrations of the Antrodia camphorata extract ZAC or the Antrodia camphorata extract YS-1 respectively, and the group added with DMSO is used as an experimental control group. After the cells are co-cultured with the Antrodia camphorata extract for 7 days, WST-1 assay reagent is added to the cells and OD 440 nm value is collected to assay a toxicity of the drug on the cells, the cell group without addition of the Antrodia camphorata extract is regarded as an experimental control group, and the cell groups added with different concentrations of the Antrodia camphorata extract are regarded as experimental groups."}, "[1]": {"test_system": "dengue virus type 2 (DENV-2), strain 16681", "experiment": "Dengue virus infection of Meg-01 cells, viral titer by plaque assay", "assay_type": "cell-based", "conditions": "for dengue viral titer versus infected control: p value<0.0001", "protocol": "(§1) 2×10^4 Meg-01 cells are lysed in a RPMI culture medium containing 10% fetal bovine serum for in vitro infection with dengue virus. The infection condition is 1 MOI, a total volume of virus sap and cell sap is 2 ml, and the selected virus is dengue virus type 2 (DENV-2), strain 16681. The infection mixture is cultured in a 37° C. incubator for 2 hours, and the tube is shaken once every 30 minutes to increase a chance of virus contacting the cells. After 2 hours, centrifuge (600 rpm, 6 minutes) with a centrifuge to remove the virus that is not in contact with the cells, and re-lyse the cells with an appropriate amount of a cell culture medium, and then divide the cells into a cell culture medium (2 ml) or into a cell culture medium additional added with the Antrodia camphorata extract ZAC and the Antrodia camphorata extract YS-1, the centrifuge tube is finally placed in a 37° C. incubator, and the infection supernatant is collected at specific infection time points (time points: 2 hours, and 1, 2, 3, 5, 7 days after infection). The infection mixture is taken out at the specific time points, centrifuged with a centrifuge (600 rpm, 6 minutes), the infection supernatant is separated, and a viral titer is assayed by viral plaque assay and an expression of cytokines is assayed by enzyme combined with immunosorbent assay.\n7×10^5/well […] kidney epithelial cells (BHK cells) are lysed in 1.5 ml of a DMEM culture medium containing 5% fetal bovine serum and seeded on a 6-well plate. The virus solution to be tested will be serially diluted first. The preparation method is to add 100 μL of unknown virus solution to 900 μL of a DMEM culture medium containing 2% fetal bovine serum to achieve a 10-fold dilution. After the cells to be seeded are attached onto the plate, remove the culture medium, add 400 μL of the virus solution to be tested, and culture in a 37° C. incubator for 2 hours. The plate needs to be shaken once every 15 minutes so that the infection solution can evenly cover the cells. After two hours, the infection solution is removed, methylcellulose is added to limit a range of virus movement, and the plate is placed back into the 37° C. incubator to culture for 7 days. […] Finally, the dye is washed off with clean water, and a number of plaques formed is counted to calculate the viral titer. […]\n2 hours after the […] cells are infected by dengue virus, centrifuge to remove excessive virus, and the cells are re-lysed in a cell culture medium containing the Antrodia camphorata extract ZAC (91.68 μg/mL) or the Antrodia camphorata extract YS-1 (176.51 μg/mL), respectively. […] Plaque assay will be used on the collected infected supernatant (n=3) to quantify a viral titer."}, "IL-6": {"test_system": "IL-6", "experiment": "IL-6 expression in infected supernatant of DENV-infected Meg-01 cells, enzyme immunoassay", "assay_type": "cell-based, human", "conditions": "after dengue virus infection, extract at IC10 concentration", "protocol": "as §1, with “assay. […]” for “assay.”"}, "IL-8": {"test_system": "IL-8", "experiment": "IL-8 expression in infected supernatant of DENV-infected Meg-01 cells, enzyme immunoassay", "assay_type": "cell-based, human", "conditions": "after dengue virus infection, extract at IC10 concentration", "protocol": "as §1, with “assay. […]” for “assay.”"}, "IFN-α": {"test_system": "IFN-α", "experiment": "IFN-α expression in infected supernatant of DENV-infected Meg-01 cells, enzyme immunoassay", "assay_type": "cell-based, human", "conditions": "5th and 7th days after infection, extract at IC10 concentration; day 5 P value 0.0021", "protocol": "as §1, with “assay. […]” for “assay.”"}}, "note": "Values joined by “and” are separate entries in the source; they are usually repeats but may differ in a detail not shown here. Identical values can stand only once."}
{"compound": "COc1cc(C)c(OC)c2c1OCO2", "note": "[YS-1, 4,7-dimethoxy-5-methyl-1,3-benzodioxole]", "values": [{"measurement": "IC10 (concentration that produces 10% inhibition of cell viability)", "setting": "Meg-01 cells", "result": "176.512 µg/mL and 176.51 µg/mL"}, {"measurement": "effect on cell viability", "setting": "Meg-01 cells; higher concentrations 200 μg/mL", "result": "slight effect on cell viability"}, {"measurement": "toxicity on Meg-01 cells (cell viability)", "setting": "Meg-01 cells; 100 μg/mL", "result": "generally not toxic"}, {"measurement": "dengue viral titer versus infected control", "setting": "[1]; 176.51 μg/mL added after infection", "result": "significantly reducing the viral titer"}, {"measurement": "inhibitory effect on dengue virus (viral titer)", "setting": "[1]; high dose 176.51 μg/mL compared with low dose 25 μg/mL", "result": "better inhibitory effect on dengue virus"}, {"measurement": "inhibitory effect on dengue virus (viral titer)", "setting": "[1]; low dose 25 μg/mL", "result": "inhibitory effect on dengue virus"}, {"measurement": "expression of cellular inflammatory factor IL-6", "setting": "IL-6", "result": "effectively reducing an expression"}, {"measurement": "expression of cellular inflammatory factor IL-8", "setting": "IL-8", "result": "effectively reducing an expression"}]}
{"compound": "C=C(CC[C@@H](C)[C@H]1CC[C@H]2C3=C(C(=O)[C@H](O)[C@]12C)[C@@]1(C)CC[C@@H](O)[C@@H](C)[C@@H]1CC3=O)C(C)C(=O)O", "note": "(stereo partly drawn) [ZAC, Zhankuic acid C]", "values": [{"measurement": "IC10 (concentration that produces 10% inhibition of cell viability)", "setting": "Meg-01 cells", "result": "91.675 µg/mL and 91.68 µg/mL"}, {"measurement": "effect on cell viability", "setting": "Meg-01 cells; higher concentrations 100 μg/mL, 200 μg/mL", "result": "slight effect on cell viability"}, {"measurement": "toxicity on Meg-01 cells (cell viability)", "setting": "Meg-01 cells", "result": "generally has no toxicity"}, {"measurement": "dengue viral titer versus infected control", "setting": "[1]; 91.68 μg/mL added 2 hours after infection, late stages of infection (5th to 7th days)", "result": "decreases significantly"}, {"measurement": "expression of cellular inflammatory factor IL-6", "setting": "IL-6", "result": "effectively reducing an expression"}, {"measurement": "expression of cellular inflammatory factor IL-8", "setting": "IL-8", "result": "effectively reducing an expression"}, {"measurement": "amount of secretion of IFN-α versus infected control", "setting": "IFN-α", "result": "significantly higher"}]}
